Results on 22 molecules are retold here after patent publication US9149475B2, “Protein kinase C inhibitors and uses thereof” (Rigel Pharmaceuticals, Inc., priority 2009, dated 2015).

Each structure is given as a SMILES string.

In this assay the test system is Human primary T cells. Put plainly: IL-2 ELISA, human primary T cell, anti-CD3+CD28+ (whole cell assay). The format is cell-based. The note with it: Homo sapiens, T-cell, 24 h, human primary T cells stimulated with anti-CD3 + anti-CD28, 24 hours. Here is the method: (§1) Human primary T cells were prepared as follows. Whole blood was obtained from a healthy volunteer, mixed 1:1 with PBS, layered on to Ficoll Hypaque (Amersham Pharmacia Biotech, Piscataway, N.J., Catalog #17-1440-03) in 2:1 blood/PBS:ficoll ratio and centrifuged for 30 minutes at 4° C. at 1750 rpm. The cells at the serum:ficoll interface were recovered and washed twice with 5 volumes of PBS. These freshly isolated human peripheral blood mononuclear cells were cultured in Yssel's medium containing 40 U/mL IL2 in a flask pre-coated with 1 μg/mL αCD3 and 5 μg/mL αCD28 (Anti-Human CD3, BD Pharmingen Catalog #555336, Anti-Human CD28, Beckman Coulter Catalog #IM1376). The cells were stimulated for 3-4 days, then transferred to a fresh flask and maintained in RPMI (RPMI-1640 with L-Glutamine; Mediatech, Inc., Herndon Va., cat. #10-040-CM) with 10% FBS and 40 U/mL IL-2. The primary T-cells were then washed twice with PBS to remove the IL-2.
Human primary T cells (100,000 cells per well) were pre-incubated with or without test compound in Yssel's medium for 1 hr at 37° C. Cells were then stimulated by transferring them to round-bottom 96-well plates pre-coated with 1 μg/ml μCD3 and 5 μg/ml μCD28. For counter assay, cells were instead stimulated by adding 8× stock solutions of PMA and ionomycin in Yssels (for final concentrations of 0.5 ng/ml PMA and 0.1 μM ionomycin, both from Calbiochem). Cells were incubated at 37° C. for 24 hours before 100 μL supernatants were harvested for quantification of IL-2 by ELISA using Human IL-2 Duoset ELISA Kit from R and D Systems, Cat. #DY202E.
as §1, with “Human primary T cell isolation and culture: Human primary” for “Human primary”, “for 30 min at 4°” for “for 30 minutes at 4°”, “at the serum: ficoll interface were” for “at the serum:ficoll interface were”
Primary T cell stimulation and IL2 ELISA: Human primary T cells (100,000 cells per well) were pre-incubated with or without test compound in Yssel's medium for 1 hr at 37° C. Cells were then stimulated by transferring them to round-bottom 96-well plates pre-coated with 1 μg/ml αCD3 and 5 μg/ml αCD28. For counter assay, cells were instead stimulated by adding 8× stock solutions of PMA and ionomycin in Yssels (for final concentrations of 0.5 ng/ml PMA and 0.1 μM ionomycin, both from Calbiochem). Cells were incubated at 37° C. for 24 hours before 100 μL supernatants were harvested for quantification of IL-2 by ELISA using Human IL-2 Duoset ELISA Kit from R and D Systems, Cat. #DY202E.
One may read the IC50 as the concentration that gives 50% inhibition. With `Cc1ccn(-c2cccc(Nc3ncc(F)c(NC4CC(C)(C)N(C)C(C)(C)C4)n3)c2)n1` [Compound I-1, 5-fluoro-N2-(3-(3-methyl-1H-pyrazol-1-yl)phenyl)-N4-(1,2,2,6,6-pentamethylpiperidin-4-yl)pyrimidine-2,4-diamine], the IC50 was above 1 µM.

Turning to `CN1C(C)(C)CC(Nc2nc(Nc3cccc(-n4ccc(C(F)(F)F)n4)c3)ncc2F)CC1(C)C` [Compound I-2, 5-fluoro-N2-(3-(3-(trifluoromethyl)-1H-pyrazol-1-yl)phenyl)-N4-(1,2,2,6,6-pentamethylpiperidin-4-yl)pyrimidine-2,4-diamine], the IC50 was above 1 µM.

For the molecule `CC1(C)CC(Nc2nc(Nc3cccc(-n4ccc(C(F)(F)F)n4)c3)ncc2F)CC(C)(C)N1` [Compound I-3, 5-fluoro-N2-(3-(3-(trifluoromethyl)-1H-pyrazol-1-yl)phenyl)-N4-(2,2,6,6-tetramethylpiperidin-4-yl)pyrimidine-2,4-diamine], the IC50 is above 1 µM.

Take `Cc1ccc(C)n1-c1cc(Nc2ncc(F)c(NC3CC(C)(C)N(C)C(C)(C)C3)n2)ccc1OC(F)F` [Compound I-4, N2-(4-(difluoromethoxy)-3-(2,5-dimethyl-1H-pyrrol-1-yl)phenyl)-5-fluoro-N4-(1,2,2,6,6-pentamethylpiperidin-4-yl)pyrimidine-2,4-diamine]: the IC50 was in the range of 0.25 to 0.5 µM.

Consider `Cc1ccc(C)n1-c1cc(Nc2ncc(F)c(NC3CC(C)(C)NC(C)(C)C3)n2)ccc1OC(F)F` [Compound I-5, N2-(4-(difluoromethoxy)-3-(2,5-dimethyl-1H-pyrrol-1-yl)phenyl)-5-fluoro-N4-(2,2,6,6-tetramethylpiperidin-4-yl)pyrimidine-2,4-diamine], for which the 50% inhibitory concentration (IC50) lay within 0.5 to 1 µM.

Consider `CN1C(C)(C)CC(Nc2nc(Nc3cc(F)cc(OCCn4ccnn4)c3)ncc2F)CC1(C)C` [Compound I-6, N2-(3-(2-(1H-1,2,3-triazol-1-yl)ethoxy)-5-fluorophenyl)-5-fluoro-N4-(1,2,2,6,6-pentamethylpiperidin-4-yl)pyrimidine-2,4-diamine], for which the IC50 fell in the range of 0.5 to 1 µM.

With `Cc1ccn(-c2cccc(Nc3ncc(F)c(NC4CC(C)(C)NC(C)(C)C4)n3)c2)n1` [Compound I-7, 5-fluoro-N2-(3-(3-methyl-1H-pyrazol-1-yl)phenyl)-N4-(2,2,6,6-tetramethylpiperidin-4-yl)pyrimidine-2,4-diamine], the IC50 is above 1 µM.

As to `CC1(C)CC(Nc2nc(Nc3cc(F)cc(OCCn4ccnn4)c3)ncc2F)CC(C)(C)N1` [Compound I-8, N2-(3-(2-(1H-1,2,3-triazol-1-yl)ethoxy)-5-fluorophenyl)-5-fluoro-N4-(2,2,6,6-tetramethylpiperidin-4-yl)pyrimidine-2,4-diamine], the IC50 was above 1 µM.

Consider `Cc1nnnn1-c1cc(Nc2ncc(F)c(NC3CC(C)(C)N(C)C(C)(C)C3)n2)ccc1F` [Compound I-9, 5-fluoro-N2-(4-fluoro-3-(5-methyl-1H-tetrazol-1-yl)phenyl)-N4-(1,2,2,6,6-pentamethylpiperidin-4-yl)pyrimidine-2,4-diamine], for which the IC50 is below 0.25 µM.

Turning to `Cc1nnnn1-c1cc(Nc2ncc(F)c(NC3CC(C)(C)NC(C)(C)C3)n2)ccc1F` [Compound I-10, 5-fluoro-N2-(4-fluoro-3-(5-methyl-1H-tetrazol-1-yl)phenyl)-N4-(2,2,6,6-tetramethylpiperidin-4-yl)pyrimidine-2,4-diamine], the IC50 was in the range of 0.25 to 0.5 µM.

Turning to `Cc1nnnn1-c1cc(Nc2ncc(F)c(NC3CC(C)(C)N(CC4CC4)C(C)(C)C3)n2)ccc1F` [Compound I-11, N4-(1-(cyclopropylmethyl)-2,2,6,6-tetramethylpiperidin-4-yl)-5-fluoro-N2-(4-fluoro-3-(5-methyl-1H-tetrazol-1-yl)phenyl)pyrimidine-2,4-diamine], the IC50 is above 1 µM.

As to `CN1C(C)(C)CC(Nc2nc(Nc3cccc(-n4cncn4)c3)ncc2F)CC1(C)C` [Compound I-12, N2-(3-(1H-1,2,4-triazol-1-yl)phenyl)-5-fluoro-N4-(1,2,2,6,6-pentamethylpiperidin-4-yl)pyrimidine-2,4-diamine], the IC50 was in the range of 0.5 to 1 µM.

For the molecule `CCOc1ccc(Nc2ncc(F)c(NC3CC(C)(C)N(C)C(C)(C)C3)n2)cc1-n1c(C)ccc1C` [Compound I-13, N2-(4-ethoxy-3-(2,5-dimethyl-1H-pyrrol-1-yl)phenyl)-5-fluoro-N4-(1,2,2,6,6-pentamethylpiperidin-4-yl)pyrimidine-2,4-diamine], the IC50 is above 1 µM.

Take `CCOc1ccc(Nc2ncc(F)c(NC3CC(C)(C)NC(C)(C)C3)n2)cc1-n1c(C)ccc1C` [Compound I-14, N2-(4-ethoxy-3-(2,5-dimethyl-1H-pyrrol-1-yl)phenyl)-5-fluoro-N4-(2,2,6,6-tetramethylpiperidin-4-yl)pyrimidine-2,4-diamine]: the IC50 lay within 0.5 to 1 µM.

Consider `Cc1ccc(C)n1-c1cc(Nc2ncc(F)c(NC3CC(C)(C)N(C)C(C)(C)C3)n2)ccc1OC(C)C` [Compound I-15, N2-(4-isopropyloxy-3-(2,5-dimethyl-1H-pyrrol-1-yl)phenyl)-5-fluoro-N4-(1,2,2,6,6-pentamethylpiperidin-4-yl)pyrimidine-2,4-diamine], for which the half-inhibitory concentration (IC50) was 0.5 to 1 µM.

Take `Cc1ccc(C)n1-c1cc(Nc2ncc(F)c(NC3CC(C)(C)NC(C)(C)C3)n2)ccc1OC(C)C` [Compound I-16, N2-(4-isopropyloxy-3-(2,5-dimethyl-1H-pyrrol-1-yl)phenyl)-5-fluoro-N4-(2,2,6,6-tetramethylpiperidin-4-yl)pyrimidine-2,4-diamine]: the half-inhibitory concentration (IC50) was above 1 µM.

As to `CC1(C)CC(Nc2nc(Nc3cc(F)cc(OCCn4ccnn4)c3)ncc2C#N)CC(C)(C)N1` [Compound I-17, 4-(2,2,6,6-tetramethylpiperidin-4-ylamino)-2-(3-(2-(1H-1,2,3-triazol-1-yl)ethoxy)-5-fluorophenylamino)pyrimidine-5-carbonitrile], the IC50 was above 1 µM.

Take `Cc1nnnn1-c1cc(Nc2ncc(C#N)c(NC3CC(C)(C)NC(C)(C)C3)n2)ccc1F` [Compound I-18, 4-(2,2,6,6-tetramethylpiperidin-4-ylamino)-2-(4-fluoro-3-(5-methyl-1H-tetrazol-1-yl)phenylamino)pyrimidine-5-carbonitrile]: the 50% inhibitory concentration (IC50) fell in the range of 0.25 to 0.5 µM.

Regarding `CC1(C)CC(Nc2nc(Nc3cccc(-n4cncn4)c3)ncc2F)CC(C)(C)N1` [Compound I-19, N2-(3-(1H-1,2,4-triazol-1-yl)phenyl)-5-fluoro-N4-(2,2,6,6-tetramethylpiperidin-4-yl)pyrimidine-2,4-diamine], the 50% inhibitory concentration (IC50) fell in the range of 0.5 to 1 µM.

For the molecule `Cc1nnnn1-c1cc(Nc2ncc(F)c(NC3CC(C)(C)N(C)C(C)(C)C3)n2)ccc1OC(F)(F)F` [Compound I-20, 5-fluoro-N2-(3-(5-methyl-1H-tetrazol-1-yl)-4-(trifluoromethoxy)phenyl)-N4-(1,2,2,6,6-pentamethylpiperidin-4-yl)pyrimidine-2,4-diamine], the IC50 is below 0.25 µM.

Consider `Cc1nnnn1-c1cc(Nc2ncc(F)c(NC3CC(C)(C)NC(C)(C)C3)n2)ccc1OC(F)(F)F` [Compound I-21, 5-fluoro-N2-(3-(5-methyl-1H-tetrazol-1-yl)-4-(trifluoromethoxy)phenyl)-N4-(2,2,6,6-tetramethylpiperidin-4-yl)pyrimidine-2,4-diamine], for which the IC50 is below 0.25 µM.

`CN1C(C)(C)CC(Nc2nc(Nc3cccc(-n4cccn4)c3)ncc2F)CC1(C)C` [Compound I-22, N2-(3-(1H-pyrazol-1-yl)phenyl)-5-fluoro-N4-(1,2,2,6,6-pentamethylpiperidin-4-yl)pyrimidine-2,4-diamine]: the IC50 was 0.5 to 1 µM.
